According to patent US7585895B2, “Therapeutic substituted cyclopentanes” (Allergan, Inc., priority 2005, dated 2009):

Experiments:
hFP = target: T1, hFP (Homo sapiens, UniProt P43088); experiment: FLIPR calcium signal, FP; type: cell-based; settings: HEK-293(EBNA)
T1 construct: expressed in transfected cells
Protocol: (§1) HEK-293(EBNA) cells, stably expressing one type or subtype of recombinant human prostaglandin receptors (prostaglandin receptors expressed: hDP/Gqs5; hEP1; hEP2/Gqs5; hEP3A/Gqi5; hEP4/Gqs5; hFP; hIP; hTP), were cultured in 100 mm culture dishes in high-glucose DMEM medium containing 10% fetal bovine serum, 2 mM 1-glutamine, 250 μg/ml geneticin (G418) and 200 μg/ml hygromycin B as selection markers, and 100 units/ml penicillin G, 100 μg/ml streptomycin and 0.25 μg/ml amphotericin B.
(§2) Cells were seeded at a density of 5×10^4 cells per well in Biocoat® Poly-D-lysine-coated black-wall, clear-bottom 96-well plates (Becton-Dickinson) and allowed to attach overnight in an incubator at 37° C. Cells were then washed two times with HBSS-HEPES buffer (Hanks Balanced Salt Solution without bicarbonate and phenol red, 20 mM HEPES, pH 7.4) using a Denley Cellwash plate washer (Labsystems). After 45 minutes of dye-loading in the dark, using the calcium-sensitive dye Fluo-4 AM at a final concentration of 2 μM, plates were washed four times with HBSS-HEPES buffer to remove excess dye leaving 100 μl in each well. Plates were re-equilibrated to 37° C. for a few minutes.
(§3) Cells were excited with an Argon laser at 488 nm, and emission was measured through a 510-570 nm bandwidth emission filter (FLIPR™, Molecular Devices, Sunnyvale, Calif.). Drug solution was added in a 50 μl volume to each well to give the desired final concentration. The peak increase in fluorescence intensity was recorded for each well. On each plate, four wells each served as negative (HBSS-HEPES buffer) and positive controls (standard agonists: BW245C (hDP); PGE2 (HEP1; hEP2/Gqs5; hEP3A/Gqi5; hEP4/Gqs5); PGF2α (hFP); carbacyclin (hIP); U-46619 (hTP), depending on receptor). The peak fluorescence change in each drug-containing well was then expressed relative to the controls.
(§4) Compounds were tested in a high-throughput (HTS) or concentration-response (CoRe) format. In the HTS format, forty-four compounds per plate were examined in duplicates at a concentration of 10^−5 M. To generate concentration-response curves, four compounds per plate were tested in duplicates in a concentration range between 10^−5 and 10^−11 M. The duplicate values were averaged. In either, HTS or CoRe format each compound was tested on at least 3 separate plates using cells from different passages to give an n≧3.

hEP1 = target: T2, hEP1 (Homo sapiens, UniProt P34995); experiment: FLIPR calcium signal, EP1; type: cell-based; settings: HEK-293(EBNA)
T2 construct: expressed in transfected cells
T2 sequence (P34995 1-402): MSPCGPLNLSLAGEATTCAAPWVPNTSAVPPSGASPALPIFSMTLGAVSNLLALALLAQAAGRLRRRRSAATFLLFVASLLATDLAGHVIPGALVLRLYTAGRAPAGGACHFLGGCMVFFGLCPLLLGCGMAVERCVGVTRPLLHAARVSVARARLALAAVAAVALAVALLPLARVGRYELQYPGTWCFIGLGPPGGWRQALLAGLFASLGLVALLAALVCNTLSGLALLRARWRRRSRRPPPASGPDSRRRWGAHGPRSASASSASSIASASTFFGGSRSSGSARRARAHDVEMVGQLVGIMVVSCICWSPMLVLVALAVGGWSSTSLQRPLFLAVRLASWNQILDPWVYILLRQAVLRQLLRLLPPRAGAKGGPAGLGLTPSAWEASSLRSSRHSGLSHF
Protocol: as §1, §2, §3, §4

hEP2/Gqs5 = target: T3, hEP2/Gqs5 (Homo sapiens, UniProt P43116); experiment: FLIPR calcium signal, EP2; type: cell-based; settings: HEK-293(EBNA), value outside parentheses, read-out: Ca2+ Signal-EC50 (nM) EP2
T3 construct: expressed in transfected cells
T3 sequence (P43116 whole entry): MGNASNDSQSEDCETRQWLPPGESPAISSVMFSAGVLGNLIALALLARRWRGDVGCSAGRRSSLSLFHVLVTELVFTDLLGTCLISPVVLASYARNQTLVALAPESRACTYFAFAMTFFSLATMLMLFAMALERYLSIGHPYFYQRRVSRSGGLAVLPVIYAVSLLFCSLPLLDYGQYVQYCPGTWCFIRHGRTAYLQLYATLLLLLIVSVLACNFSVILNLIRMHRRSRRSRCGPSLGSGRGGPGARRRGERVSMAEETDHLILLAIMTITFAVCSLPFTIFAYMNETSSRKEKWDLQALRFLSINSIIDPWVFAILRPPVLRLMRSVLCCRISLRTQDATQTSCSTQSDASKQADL
Protocol: as §1, §2, §3, §4

hEP3A/Gqi5 = target: T4, hEP3A/Gqi5 (Homo sapiens, UniProt P43115); experiment: FLIPR calcium signal, EP3; type: cell-based; settings: HEK-293(EBNA)
T4 construct: expressed in transfected cells
T4 sequence (P43115 1-390): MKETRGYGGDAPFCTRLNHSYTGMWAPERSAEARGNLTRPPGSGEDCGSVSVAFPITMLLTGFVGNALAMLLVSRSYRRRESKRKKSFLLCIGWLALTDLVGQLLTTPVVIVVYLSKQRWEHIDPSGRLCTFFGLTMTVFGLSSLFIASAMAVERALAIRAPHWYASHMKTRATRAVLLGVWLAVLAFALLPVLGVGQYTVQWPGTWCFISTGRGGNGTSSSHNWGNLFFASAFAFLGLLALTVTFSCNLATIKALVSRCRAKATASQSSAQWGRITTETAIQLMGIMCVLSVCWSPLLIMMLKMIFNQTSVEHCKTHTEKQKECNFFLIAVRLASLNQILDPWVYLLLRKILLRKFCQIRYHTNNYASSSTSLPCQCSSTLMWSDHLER
Protocol: as §1, §2, §3, §4

hEP4/Gqs5 = target: T5, hEP4/Gqs5 (Homo sapiens, UniProt P35408); experiment: FLIPR calcium signal, EP4; type: cell-based; settings: HEK-293(EBNA)
T5 construct: expressed in transfected cells
T5 sequence (P35408 whole entry): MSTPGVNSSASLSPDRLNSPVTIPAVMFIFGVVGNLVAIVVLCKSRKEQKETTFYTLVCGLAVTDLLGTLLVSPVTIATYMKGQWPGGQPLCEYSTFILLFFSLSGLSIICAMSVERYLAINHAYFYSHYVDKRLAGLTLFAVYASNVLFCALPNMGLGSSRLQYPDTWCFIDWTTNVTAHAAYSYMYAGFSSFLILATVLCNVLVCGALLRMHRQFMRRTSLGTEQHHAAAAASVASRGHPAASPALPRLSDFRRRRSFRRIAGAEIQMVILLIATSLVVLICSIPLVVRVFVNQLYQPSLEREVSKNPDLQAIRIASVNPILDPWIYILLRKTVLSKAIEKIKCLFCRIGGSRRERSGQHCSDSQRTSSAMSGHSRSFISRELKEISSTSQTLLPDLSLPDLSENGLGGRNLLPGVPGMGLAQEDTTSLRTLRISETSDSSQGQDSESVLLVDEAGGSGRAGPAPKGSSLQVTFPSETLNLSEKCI
Protocol: as §1, §2, §3, §4

hTP = target: T6, hTP (Homo sapiens, UniProt P21731); experiment: FLIPR calcium signal, TP; type: cell-based; settings: HEK-293(EBNA)
T6 construct: expressed in transfected cells
T6 sequence (P21731 1-343): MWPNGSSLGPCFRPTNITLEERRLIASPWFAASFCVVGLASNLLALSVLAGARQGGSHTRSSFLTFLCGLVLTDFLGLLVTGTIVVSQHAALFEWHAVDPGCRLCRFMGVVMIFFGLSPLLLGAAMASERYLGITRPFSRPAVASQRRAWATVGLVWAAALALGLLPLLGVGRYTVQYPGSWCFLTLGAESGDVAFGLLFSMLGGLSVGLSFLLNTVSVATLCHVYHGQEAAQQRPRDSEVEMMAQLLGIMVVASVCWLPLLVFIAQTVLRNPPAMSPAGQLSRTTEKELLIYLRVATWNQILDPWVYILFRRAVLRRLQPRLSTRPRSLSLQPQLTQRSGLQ
Protocol: as §1, §2, §3, §4

hIP = target: T7, hIP (Homo sapiens, UniProt P43119); experiment: FLIPR calcium signal, IP; type: cell-based; settings: HEK-293(EBNA)
T7 construct: expressed in transfected cells
T7 sequence (P43119 whole entry): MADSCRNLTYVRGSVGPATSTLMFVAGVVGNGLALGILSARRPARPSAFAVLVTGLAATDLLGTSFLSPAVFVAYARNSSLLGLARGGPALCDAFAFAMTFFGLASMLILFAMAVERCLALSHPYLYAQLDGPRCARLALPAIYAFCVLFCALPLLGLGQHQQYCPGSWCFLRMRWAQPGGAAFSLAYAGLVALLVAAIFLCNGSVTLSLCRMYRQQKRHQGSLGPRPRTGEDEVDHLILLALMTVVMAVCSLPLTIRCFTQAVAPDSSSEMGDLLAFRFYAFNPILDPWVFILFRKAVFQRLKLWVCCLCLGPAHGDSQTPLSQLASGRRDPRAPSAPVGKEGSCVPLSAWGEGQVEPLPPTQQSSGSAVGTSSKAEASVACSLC
Protocol: as §1, §2, §3, §4

hDP/Gqs5 = target: T8, hDP/Gqs5 (Homo sapiens, UniProt Q13258); experiment: FLIPR calcium signal, DP; type: cell-based; settings: HEK-293(EBNA)
T8 construct: expressed in transfected cells
T8 sequence (Q13258 1-359): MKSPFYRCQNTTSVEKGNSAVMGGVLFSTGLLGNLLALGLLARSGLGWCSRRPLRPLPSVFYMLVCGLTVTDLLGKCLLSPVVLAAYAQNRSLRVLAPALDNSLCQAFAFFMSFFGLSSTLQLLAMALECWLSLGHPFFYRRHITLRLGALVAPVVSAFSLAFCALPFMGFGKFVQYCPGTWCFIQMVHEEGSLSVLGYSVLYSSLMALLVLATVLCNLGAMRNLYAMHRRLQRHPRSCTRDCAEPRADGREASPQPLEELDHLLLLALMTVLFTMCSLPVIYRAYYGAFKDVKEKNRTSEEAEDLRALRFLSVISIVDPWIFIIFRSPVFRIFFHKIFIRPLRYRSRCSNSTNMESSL
Protocol: as §1, §2, §3, §4

EP4 receptors = target: T9, EP4 receptors (Homo sapiens, UniProt P35408); experiment: Radioligand binding, [3H]PGE2, EP4 (Ki); settings: HEK-293 cells stably expressing EP4, [3H]PGE2
T9 construct: expressed in transfected cells; membrane pellet
T9 sequence (P35408 whole entry): as the sequence (P35408 whole entry) above
Protocol: (§5) HEK-293 cells stably expressing the human or feline FP receptor, or EP1, EP2, or EP4 receptors were washed with TME buffer, scraped from the bottom of the flasks, and homogenized for 30 sec using a Brinkman PT 10/35 polytron. TME buffer was added to achieve a final 40 ml volume in the centrifuge tubes (the composition of TME is 100 mM TRIS base, 20 mM MgCl2, […]; 10N HCl is added to achieve a pH of 7.4).
(§6) The cell homogenate was centrifuged at 19000 r.p.m. for 20 min at 4° C using a Beckman Ti-60 rotor. The resultant pellet was resuspended in TME buffer to give a final 1 mg/ml protein concentration, as determined by Biorad assay. Radioligand binding competition assays vs. [^3H-]17-phenyl PGF2α. (5 nM) were performed in a 100 μl volume for 60 min. Binding reactions were started by adding plasma membrane fraction. The reaction was terminated by the addition of 4 ml ice-cold TRIS-HCl buffer and rapid filtration through glass fiber GF/B filters using a Brandel cell harvester. The filters were washed 3 times with ice-cold buffer and oven dried for one hour.
(§7) [^3H-] PGE2 (specific activity 180 Ci mmol) was used as the radioligand for EP receptors. [^3H] 17-phenyl PGF2α, was employed for FP receptor binding studies. Binding studies employing EP1, EP2, EP4 and FP receptors were performed in duplicate in at least three separate experiments. A 200 μl assay volume was used. Incubations were for 60 min at 25° C. and were terminated by the addition of 4 ml of ice-cold 50 mM TRIS-HCl, followed by rapid filtration through Whatman GF/B filters and three additional 4 ml washes in a cell harvester (Brandel). Competition studies were performed using a final concentration of 5 nM [^3H]-PGE2, or 5 nM [^3H] 17-phenyl PGF2αand non-specific binding determined with 10^−5M of unlabeled PGE2, or 17-phenyl PGF2α, according to receptor subtype studied.

EP2 [1] = target: T10, EP2 (Homo sapiens, UniProt P43116); experiment: cAMP assay, HEK-EBNA cells expressing EP2; type: cell-based; design: expressed in transfected cells; host or cells: HEK-EBNA; settings: value in parentheses in EP2 column, read-out: EP2 EC50 (nM), measurement of cAMP (data in parentheses)
T10 sequence (P43116 whole entry): as the sequence (P43116 whole entry) above
Protocol: A 384-well drug plate was prepared to contain 6 test compounds, PGE2 and cAMP in 16 serial dilutions in triplicate, using a Biomek station. HEK-EBNA cells expressing a target PG receptor subtype (EP2 or EP4) were suspended in a stimulation buffer (HBSS, 0.1% BSA, 0.5 mM IBMX and 5 mM HEPES, pH 7.4) in a density of 10^4 cells/5 μl. The reaction was initiated by mixing 5 μL drug dilutions with 5 μl of HEK-EBNA cells in a well, carried out for 30 min at room temperature, and followed by the addition of 5 μl anti-cAMP acceptor beads in the control buffer with Tween-20 (25 mM NaCl, 0.03% Tween-20, 5 mM HEPES, pH7.4). After 30 min in the dark at room temperature, the mixtures were incubated with 15 μl biotinylated-cAMP/strepavidin donor beads in Lysis/Detection buffer (0.1% BSA, 0.3% Tween-20 and 5 mM HEPES, pH7.4) for 45 min at the room temperature. Fluorescence changes were read using a Fusion-alpha HT microplate reader.

EP2 [2] = target: T10, EP2; experiment: Competition binding, [3H]PGE2, EP2 (Ki); design: expressed in transfected cells; membranes or whole cells; settings: HEK 293 cells stably expressing human EP2, [3H]PGE2
Protocol: Competition binding experiments were performed in a medium containing Hank's balanced salt solution, Hepes 20 mM, pH 7.3, membranes (˜60 μg protein) or 2×10^5 cells from HEK 293 cells stably expressing human EP2 receptors, [^3H]PGE2 (10 nM) and various concentrations of test compounds in a total volume of 300 μl. Reaction mixtures were incubated at 23° C. for 60 min, and were filtered over Whatman GF/B filters under vacuum. Filters were washed three times with 5 ml ice-cold buffer containing 50 mM Tris/HCl (pH 7.3). Non-specific binding was estimated in the presence of excess unlabeled PGE2 (10 μM). Binding data fitted to the binding model for a single class of binding sites, using nonlinear regression analysis. IC50 values thus obtained were converted to Ki using the equation of Ki=(IC50/(1+[L]/KD) where [L] represents PGE2 concentration (10 nM) and KD the dissociation constant for [^3H]PGE2 at human EP2 receptors (40 nM).
as §5, §6, §7

T1 sequence (P43088 whole entry): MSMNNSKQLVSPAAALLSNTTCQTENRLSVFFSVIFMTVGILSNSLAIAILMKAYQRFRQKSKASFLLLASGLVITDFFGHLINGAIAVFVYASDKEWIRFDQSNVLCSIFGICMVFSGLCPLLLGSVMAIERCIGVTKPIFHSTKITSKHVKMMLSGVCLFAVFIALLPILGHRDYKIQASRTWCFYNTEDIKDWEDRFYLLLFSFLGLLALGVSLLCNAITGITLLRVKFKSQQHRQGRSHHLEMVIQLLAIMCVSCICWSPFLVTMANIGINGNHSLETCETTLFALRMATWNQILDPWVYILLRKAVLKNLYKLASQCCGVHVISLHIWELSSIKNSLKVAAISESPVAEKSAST

SMILES: CCCCCC(O)c1ccc([C@@H]2[C@@H](C/C=C\CCCC(=O)OC)[C@H](Cl)C[C@H]2O)cc1 (mixture of isomers) [Entry 10, (Z)-7-{(1R,2S,3R,5R)-5-Chloro-3-hydroxy-2-[4-(1-hydroxy-hexyl)-phenyl]-cyclopentyl}-hept-5-enoic acid methyl ester]
- Ca2+ Signal-EC50 (nM) FP (hFP): not active
- Ca2+ Signal-EC50 (nM) EP1 (hEP1): not active
- EC50 (hEP2/Gqs5): 3960 nM
- Ca2+ Signal-EC50 (nM) EP3 (hEP3A/Gqi5): not active
- Ca2+ Signal-EC50 (nM) EP4 (hEP4/Gqs5): not active
- Ca2+ Signal-EC50 (nM) TP (hTP): not active
- Ca2+ Signal-EC50 (nM) IP (hIP): not active
- Ca2+ Signal-EC50 (nM) DP (hDP/Gqs5): not active

SMILES: CCCCCC(O)c1ccc([C@@H]2[C@@H](CCCc3cccc(C(=O)O)c3)[C@H](Cl)C[C@H]2O)cc1 (stereo partly drawn) [Entry 1, 3-(3-{(1R,2S,3R,5R)-5-Chloro-3-hydroxy-2-[4-(1-hydroxy-hexyl)-phenyl]-cyclopentyl}-propyl)-benzoic acid]
- Ca2+ Signal-EC50 (nM) FP (hFP): not active
- EC50 (hEP1; read-out: Ca2+ Signal-EC50 (nM) EP1): 917 nM
- EC50 (hEP2/Gqs5): 2450 nM
- EC50 (hEP3A/Gqi5; read-out: Ca2+ Signal-EC50 (nM) EP3): 4150 nM
- Ca2+ Signal-EC50 (nM) EP4 (hEP4/Gqs5): not active
- Ca2+ Signal-EC50 (nM) TP (hTP): not active
- Ca2+ Signal-EC50 (nM) IP (hIP): not active
- Ca2+ Signal-EC50 (nM) DP (hDP/Gqs5): not active

SMILES: CC(C)(C)CCCC(O)c1ccc([C@@H]2[C@@H](C/C=C\CCCC(=O)O)[C@H](Cl)C[C@H]2O)cc1 (stereo partly drawn) [Entry 19, (Z)-7-{(1R,2S,3R,5R)-5-Chloro-3-hydroxy-2-[4-(1-hydroxy-5,5-dimethyl-hexyl)-phenyl]-cyclopentyl}-hept-5-enoic acid]
- Ki (EP4 receptors): 6290 nM
- EC50 (hEP2/Gqs5): > 10000 nM
- EC50 (hEP4/Gqs5; read-out: Ca2+ Signal-EC50 (nM) EP4): > 10000 nM
- EC50 (EP2 [1]): 815 nM
- Ki (EP2 [2]): 1050 nM
